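1) Cells in 96-well plates. 2) Compound, 48 h, 5 concentrations. 3) Linear interpolation between surrounding doses. 4) Unreached endpoint = highest concentration. TGI marks complete inhibition of growth.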

Some test systems named below: LXFL 529 NSCLC; HCT-15 colon; T-47D breast; NCI-H460 lung; NCI-H226 lung; OVCAR-3 ovarian; SW-620 colon; DMS 273 small cell lung; OVCAR-5 ovarian; SNB-19 CNS.
Holding throughout (experiment): inhibition of tumour cell growth, NCI panel, 48 h

As to `COc1ccc(OC)c2c(=S)c3ccccc3[nH]c12`, the TGI is greater than 100 µM in the assay with LXFL 529 NSCLC; greater than 92.5 µM in the assay with HCT-15 colon; greater than 100 µM with T-47D breast; greater than 85 µM with NCI-H460 lung; greater than 21.5 µM in the assay with NCI-H226 lung; greater than 100 µM in the assay on OVCAR-3 ovarian. Besides, the TGI with SW-620 colon, in the assay with DMS 273 small cell lung, with OVCAR-5 ovarian and with SNB-19 CNS was greater than 100 µM throughout.
In the case of `NS(=O)(=O)c1ccc(NC(=O)c2cccc3cc4ccccc4nc23)cc1`, the TGI is greater than 100 µM in the assay with LXFL 529 NSCLC; greater than 100 µM in the assay with HCT-15 colon; greater than 100 µM in the assay on T-47D breast; greater than 100 µM with NCI-H460 lung; 98.7 µM in the assay on NCI-H226 lung; greater than 100 µM in the assay on OVCAR-3 ovarian. Besides, the TGI with SW-620 colon, in the assay on DMS 273 small cell lung, with OVCAR-5 ovarian and in the assay on SNB-19 CNS was greater than 100 µM in each case.
As to `CS(=O)(=O)OCCN(CCOS(C)(=O)=O)c1ccc(C=O)cc1`, the TGI is 47.4 µM with LXFL 529 NSCLC; 47.4 µM in the assay with HCT-15 colon; greater than 71.6 µM in the assay with T-47D breast; 3.36 µM in the assay on NCI-H460 lung; 13.4 µM in the assay with NCI-H226 lung; 28.5 µM in the assay on OVCAR-3 ovarian. The TGI worked out at 68.8 µM in the assay on SW-620 colon, 13.5 µM with DMS 273 small cell lung, 14.4 µM in the assay on OVCAR-5 ovarian and 65.5 µM with SNB-19 CNS.
`CC(=O)/C=C/c1ccc(C)cc1`: the TGI in the assay with LXFL 529 NSCLC, with HCT-15 colon, in the assay with NCI-H460 lung, in the assay on NCI-H226 lung, in the assay with OVCAR-3 ovarian and in the assay with SW-620 colon was greater than 100 µM each time. Also, the TGI in the assay on DMS 273 small cell lung, with OVCAR-5 ovarian and in the assay with SNB-19 CNS was greater than 100 µM throughout.
For `O=c1c2ccccc2nc(-c2cccc(Cl)c2)n1NCC1(O)OCC(O)C(O)C1O` (configuration not stated), the TGI with LXFL 529 NSCLC, in the assay with HCT-15 colon, in the assay on NCI-H460 lung, in the assay with NCI-H226 lung, with OVCAR-3 ovarian and in the assay with SW-620 colon was greater than 100 µM in each case. Besides, the TGI in the assay with DMS 273 small cell lung, in the assay with OVCAR-5 ovarian and with SNB-19 CNS was greater than 100 µM each time.
On to `O=C(/C=C/c1ccccc1Cl)c1ccc(Cl)cc1Cl`, for which the TGI was determined as 29.7 µM with LXFL 529 NSCLC; 25.4 µM in the assay with HCT-15 colon; 31.6 µM in the assay with NCI-H460 lung; 31.5 µM in the assay on NCI-H226 lung; 31.6 µM in the assay with OVCAR-3 ovarian; 3.36 µM in the assay on SW-620 colon. For the same molecule, the TGI in the assay on DMS 273 small cell lung amounted to 29.6 µM; in the assay on OVCAR-5 ovarian, 30.8 µM; in the assay with SNB-19 CNS, 28.8 µM.
For `Cc1ccc(Oc2ccc([N+](=O)[O-])cc2[N+](=O)[O-])c(C)c1`, the TGI with LXFL 529 NSCLC, in the assay with HCT-15 colon, in the assay on NCI-H460 lung, with NCI-H226 lung, in the assay on OVCAR-3 ovarian and in the assay with SW-620 colon was greater than 100 µM each time. Also, the TGI in the assay on DMS 273 small cell lung and with OVCAR-5 ovarian was greater than 100 µM throughout.
With `COc1cc2c(cn1)[nH]c1ccccc12`, the TGI in the assay on LXFL 529 NSCLC, in the assay with HCT-15 colon, in the assay on NCI-H460 lung, with NCI-H226 lung, in the assay on OVCAR-3 ovarian and with SW-620 colon was greater than 100 µM each time. Moreover, the TGI in the assay on DMS 273 small cell lung, with OVCAR-5 ovarian and in the assay with SNB-19 CNS was greater than 100 µM each time.
Take `Cc1c2c(cc3c(=O)ccn(CCN(C)C)c13)c(=O)ccn2CCN(C)C`: the TGI turned out to be 19.8 µM in the assay on LXFL 529 NSCLC; 24.1 µM in the assay on HCT-15 colon; 14.1 µM in the assay on NCI-H460 lung; 31.7 µM in the assay on NCI-H226 lung; 34.9 µM in the assay on OVCAR-3 ovarian; 20.5 µM with SW-620 colon. Also, the values for the TGI in the assay on DMS 273 small cell lung, in the assay with OVCAR-5 ovarian and in the assay with SNB-19 CNS were 16.3 µM, 42.3 µM and 35.7 µM, respectively.
In the case of `Cc1cccc(C)c1NC(=O)CCc1n[nH]c(=S)o1`, the TGI with LXFL 529 NSCLC was greater than 100 µM; in the assay with HCT-15 colon, greater than 100 µM; in the assay on NCI-H460 lung it was greater than 100 µM; with NCI-H226 lung, greater than 100 µM; with OVCAR-3 ovarian, greater than 100 µM; with SW-620 colon, 36.2 µM. Also, the TGI in the assay with DMS 273 small cell lung, in the assay on OVCAR-5 ovarian and in the assay on SNB-19 CNS was greater than 100 µM in each case.
On to `C=C1C(=O)OC2CC(C)C3C=CC(=O)C3CC12` (configuration not stated), for which the TGI in the assay with LXFL 529 NSCLC came to 2.67 µM; with HCT-15 colon, 4.16 µM; in the assay on T-47D breast, 5.77 µM; with NCI-H460 lung, 9.5 µM; in the assay with NCI-H226 lung, 8.21 µM; in the assay with OVCAR-3 ovarian it was 13.6 µM. For the same molecule, the TGI is 3.69 µM in the assay on SW-620 colon, 12.2 µM in the assay on DMS 273 small cell lung, 10.4 µM with OVCAR-5 ovarian and 37.7 µM in the assay on SNB-19 CNS.
`Cc1ccc2c(c1)CNc1ccc(C)cc1CN2`: the TGI in the assay with LXFL 529 NSCLC, in the assay with HCT-15 colon, with NCI-H460 lung, in the assay on NCI-H226 lung, in the assay with OVCAR-3 ovarian and in the assay with SW-620 colon was greater than 100 µM in each case. The TGI in the assay with DMS 273 small cell lung and with OVCAR-5 ovarian was greater than 100 µM in each case.
Take `COc1ccc(-c2c(N)[n+]([O-])c3ccccc3[n+]2[O-])cc1OC`: the TGI with LXFL 529 NSCLC, with HCT-15 colon, in the assay with NCI-H460 lung, in the assay with NCI-H226 lung, with OVCAR-3 ovarian and with SW-620 colon was greater than 100 µM in each case. The TGI in the assay on DMS 273 small cell lung, with OVCAR-5 ovarian and with SNB-19 CNS was greater than 100 µM in each case.
Consider `COc1cc(Nc2nc3ccc(C(F)(F)F)cc3nc2-c2ccccc2)cc(OC)c1OC`, for which the TGI is greater than 100 µM in the assay with LXFL 529 NSCLC; greater than 100 µM in the assay on HCT-15 colon; 32.3 µM with NCI-H460 lung; 65.6 µM in the assay on NCI-H226 lung; greater than 100 µM in the assay with OVCAR-3 ovarian; greater than 100 µM with SW-620 colon. Moreover, the TGI in the assay with DMS 273 small cell lung is greater than 100 µM; in the assay with OVCAR-5 ovarian it was 53.1 µM.

Source of the values: PubChem BioAssay (NCI).
